According to patent US9907791B2, “Ron inhibitors for use in preventing and treating bone loss” (UNIVERSITY OF UTAH RESEARCH FOUNDATION, priority 2014, dated 2018):

Experiments:
[1] = Human plasma BSAP levels, Phase I patients; format: in vivo; details: change compared to baseline
Description: All samples were de-identified and the experiments were approved by the University of Utah Institutional Review Board. Plasma samples were submitted to ARUP for clinical testing of CTX. For BSAP, the Human Bone Panel I capture plate with the Human Alkaline Phosphatase detection kit was utilized (Meso Scale Discovery, Rockville, Md.; […]-2) to measure BSAP levels in undiluted plasma samples per the manufacturer's protocol. ASLAN002 is currently in Phase I testing as an anti-cancer agent (NCT01721148). Regardless of cancer diagnosis, and even in the absence of bone metastasis, RON inhibition might affect normal bone turnover, especially in postmenopausal women due to their high rate of bone loss. […] Shown in FIG. 15A is quantification of the percent change in plasma CTX levels (compared to baseline prior to drug treatment) in blood plasma of patients receiving ASLAN002 in the Phase I clinical trial. […] None of the patients analyzed were treated concurrently with anti-osteoporotic agents. […] Shown in FIG. 15B is quantification of the percent change in BSAP levels (compared to baseline) in blood plasma of patients receiving ASLAN002. […] Note that these patients were not selected based on a diagnosis of bone metastasis; rather, markers of bone turnover in patients with various cancer diagnoses who participated in the Phase I trial of ASLAN002 were simply assessed.

c-Src = experiment: Western blot of osteoclast lysates, phospho-Src; format: cell-based, mice; details: WT osteoclasts with MSP
Description: Cells were serum starved (0.5% FBS) for 3 hours prior to lysate collection. Inhibitors were added 1 hour prior to lysis and MSP was added 15 min prior to lysis when indicated. Cells were washed with 1×PBS and harvested in lysis buffer (25 mM Tris-HCl, pH 7.5, 0.42 M NaCl, 1.5 mM MgCl2, 0.5 mM EDTA, 1 mM DTT, 25% sucrose, and 0.1% Triton X-100) plus 100× protease arrest (Bioscience, Bozeman, Mont.) and 100× orthovanadate. Primary antibodies used for immunoblotting include: anti-MSP (Santa Cruz, sc-6090, Dallas, Tex.) at a 1:250 dilution, anti-pan Akt (Cell Signaling, #4691S, Beverly, Mass.) at a 1:1000 dilution, anti-pan Erk (Cell Signaling, #4695, Beverly, Mass.) at a 1:1000 dilution, anti-phospho Akt (Cell Signaling, #9271 L, Beverly, Mass.) at a 1:500 dilution, anti-phospho Erk (Cell Signaling, #4370S, Beverly, Mass.) at a 1:500 dilution, anti-Src (Cell Signaling, #2110, Beverly, Mass.) at a 1:500 dilution, and anti-phospho Src (Y416) (Cell Signaling, #2113, Beverly, Mass.) at a 1:500 dilution. The secondary antibodies used were HRP-conjugated anti-goat IgG (Santa Cruz, Dallas, Tex.) and anti-rabbit IgG (Santa Cruz, Dallas, Tex.). Chemiluminescent signals were detected using Immun-Star HRP (BioRad, Hercules, Calif.).

PyMT-MSP tumor cells = experiment: Intratibial PyMT-MSP tumor-induced osteolysis; format: in vivo, mice
Description: All procedures involving mice and experimental protocols were approved by the Institutional Animal Care and Use Committee (IACUC) of the University of Utah. The RonTK−/− mice which reside on the FVB background, were crossed with NOD.SCID mice for an immune-compromised mouse model. As a control, wild-type FVB mice were also crossed with NOD.SCID mice. The STK−/− mice, which are on a C57BL/6 background, were compared to wild-type C57BL/6 mice as controls. Mice for all experiments were 6 to 8 weeks of age. For intratibial injections, 1×10^5 (PyMTor DU4475) or 3×10^5 (MDA-MB-231) tumor cells were resuspended in 10 μL matrigel and injected into the right tibia of anesthetized female FVB (PyMT) or NOD.SCID mice carrying various alleles of RON. Osteolysis was assessed by X-ray radiography. Dissected hindlimbs from mice sacrificed at the final time point in each experiment were placed in the Kodak In-vivo Multispectral Imaging System FX and exposed to X-ray radiography at 35 kV for 100 sec. Excess tumor tissue was removed from the bones prior to X-ray. Osteolytic lesions were quantified using Image J software (NCBI). All images were compared to the contralateral leg as an internal control.
Hindlimb bones were excised from mice at the time of sacrifice and bones were fixed in 10% neutral-buffered formalin, decalcified in Formical-2000 (Decal Corporation, Tallman, N.Y.) for 8 days and embedded in paraffin for hematoxylin and eosin (H & E) or immunohistochemical staining. Osteoclast number was assessed as TRAP^+ multinucleated cells containing 4 or more nuclei and reported as TRAP^+ cells per field. Three sections per mouse and 5 fields per section were used for quantification with fields representing the entire length of the tibia. Tumor proliferation rate was reported as the number of cells which were positive for phospho-H3 staining compared to the number of unstained cells per field expressed as a percent. Three sections per mouse and 5 fields per section were used for quantification with analysis being restricted to within the bone marrow cavity. Immunohistochemical analysis was performed with heat-induced antigen retrieval in sodium-citrate buffer (Dako, Denmark). Primary antibodies used were anti-TRAP at 1:50 (Santa Cruz, sc-30833, Dallas, Tex.), anti-Ki67 at 1:100 (Santa Cruz, sc-12202S, Dallas, Tex.), anti-phosphoH3 at 1:100 (Cell Signaling, #9701, Beverly, Mass.), anti-NFATc1 at 1:50 (Santa Cruz, sc-13033, Dallas, Tex.), and anti-RON at 1:250 (Santa Cruz, sc-322, Dallas, Tex.). Bones from mice lacking RON were used as a negative control. Biotinylated secondary antibody was used with the EnVision^+ system HRP kit (Dako, Denmark) and nuclei counterstained with hematoxylin.
For in vivo experiments, the OSI-296 inhibitor was dissolved in 40% Trappsol with 0.01 M HCl, and mice were treated at a concentration of 200 mg/kg daily by oral gavage. Treatment began either 3 days after tumor cell injection for prophylactic experiments, or 3 weeks after tumor cell injection for therapeutic experiments. ASLAN002 was dissolved in 70% PEG400 with 1×PBS and mice were treated at a concentration of 50 mg/kg daily by oral gavage. muRANK-Fc was given at a concentration of 10 mg/kg every three days by intra-peritoneal injection. For the osteoporosis study, mice were treated beginning on the day after ovary removal. The treatment regimen for OSI-296 was 200 mg/kg every other day by oral gavage. ASLAN002 was administered at 50 mg/kg every other day by oral gavage. Treatment continued until the time of sacrifice at 28 days.

CCOc1ccn(-c2ccc(F)cc2)c(=O)c1C(=O)Nc1ccc(Oc2ccnc(N)c2Cl)c(F)c1 [ASLAN002]
plasma bone-specific alkaline phosphatase (BSAP) levels [1]: increased plasma BSAP | MSP-increased Src phosphorylation (c-Src): blocked | inhibition of osteolysis (PyMT-MSP tumor cells; PyMT-MSP tumors, treatment beginning three days after tumor injection, average): 6-10 fold | PyMT-MSP tumor growth in the bone (PyMT-MSP tumor cells; caliper measurements): trend in decreased growth, but did not reach statistical significance
